Structures can show the parent of a compound that is named as a salt. Where two headings read alike, the source gives them in different places.

The target of series [1] is T1, amyloid beta (Aβ) 1-42 peptide (Homo sapiens, UniProt P05067).
T1 construct: amyloid beta (Aβ) 1-42 peptide; purchased Bachem
In words: Thioflavin T spectrofluorescence assay, inhibition of Aβ1-42 aggregation. The class given is biochemical. As for the experimental part:
A number of the small molecules were tested for their capacity to inhibit the aggregation of amyloid beta (Aβ) 1-42 peptide using a thioflavin T spectrofluorescence assay.
Aβ1-42 lyophilized powder (Bachem) was reconstituted in hexafluoroisopropanol (HFIP) to 1 mM. The peptide solution was sonicated for 15 min at room temperature, agitated overnight, and aliquots were placed into non-siliconized microcentrifuge tubes. The HFIP was then evaporated under a stream of argon. The resulting peptide film was dried under vacuum for 10 min, tightly sealed and stored at −80° C. until used.
To assay for the small molecule-mediated inhibition of Aβ1-42 aggregation, the small molecules were dissolved before each experiment in anhydrous dimethyl sulfoxide (DMSO, Sigma-Aldrich) to reach a concentration of 7.4 mM. Aβ1-42 peptide film was dissolved in DMSO to reach 400 μM. Assay solution in PBS buffer was prepared in non-siliconized incubation tubes to reach the following concentrations: 330 μM small molecule, 33 μM Aβ1-42, 10 μM thioflavin T (ThT), and 12.8% DMSO. Therefore, the final molar ratio of small molecule to Aβ1-42 was 10:1. A positive control without a small molecule was prepared to measure maximum RFU. A negative control without Aβ1-42 was prepared for each small molecule. 3-Aminopyrazole trimer (Trimer) was tested in all assays to ascertain reproducibility between independent experiments. The solutions were incubated for 24 hrs at 37° C., and the spectrofluorescence (relative fluorescence units; RFU) was read in six replicates in black 384-well assay plates (Perkin-Elmer) on a Perkin-Elmer FluoroCount spectrofluorometer. Inhibition of aggregation is expressed as mean % inhibition or ±1 standard deviation (SD) according to the following equation: […]
Cut-off criterium for the selection of functional molecules was defined at 50% inhibition capacity.
The small molecules were evaluated for their capacity to mediate inhibition of Aβ1-42 aggregation at a 10:1 small molecule to Aβ1-42 molar ratio. The results are expressed as mean±standard deviation of two independent experiments.

Series [2] deals with T2, Oregon Green labelled Aβ1-42 (Homo sapiens, UniProt P05067).
T2 construct: DMSO-stock solutions of Oregon Green labelled Aβ1-42 1:1 with deionized water
Description: FCS-assay with 5 nM Oregon Green labelled Aβ-peptide (disaggregation of preformed aggregates). In kind it is biochemical. As for the experimental part:
In order to analyse for the disaggregating properties of the compounds, preformed aggregates were used, which were induced straight before the FCS-measurement by diluting 500 nM DMSO-stock solutions of Oregon Green labelled Aβ1-42 1:1 with deionized water. The final concentration of Oregon Green labelled Aβ-peptide was 5 nM in 1×PBS and 3% DMSO. In order to improve the reproducibility of the measurements of the concentration dependencies of all samples were prepared fourfold.

For series [3] the following is noted: prior-art compound, stated in background; cited from earlier work.
For series [4] the following is noted: prior-art compound, stated in background; cited from earlier work. This is another data set of the same source.

T2 sequence (P05067 672-713 limits assumed): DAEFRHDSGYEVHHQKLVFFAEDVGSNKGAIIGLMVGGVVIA
T1 sequence (P05067 672-713 limits assumed): as above

Broadly, the inhibition is the share of the control response that was lost under treatment. A word on the melting point: it is the temperature, or range, at which the solid turns liquid. Compound `Clc1ccc(-c2csc(NCc3cnc(NCc4ccccc4)s3)n2)cc1` [Compound 2ak, N-Benzyl-5-((4-(4-chlorophenyl)thiazol-2-ylamino)methyl)thiazol-2-amine] registered a melting point of 105 to 106 °C. For the same compound, in series [1] (24 h), the inhibition at 330 µM stood at 37.2 ± 14.8%.
Turning to `Fc1ccc(-c2cc(NCc3cccc(NCc4ccccc4)n3)n[nH]2)cc1` [Compound 2t, N-Benzyl-6-((5-(4-fluorophenyl)-1H-pyrazol-3-ylamino)methyl)pyridin-2-amine], the inhibition at 330 µM in series [1] (330 μM small molecule, 33 μM Aβ1-42 (10:1 molar ratio), 24 hrs at 37° C., mean ± SD of two independent experiments, read-out: % inhibition) stood at 86.8 ± 2.9%. In series [2] (200 nM compound), the “percentage of the "number of peaks" value obtained for the control reaction without added compound” value was 67.2% and the “percentage of the "peaks x height" value obtained for the control reaction without added compound” value was 53.3%.
3-Aminopyrazole trimer: the metabolic stability entry in series [3] is recorded as “metabolically unstable”. In series [4], the carcinogenicity result is recorded as “carcinogenic” and the mutagenicity entry is listed as “mutagenic”.
With `CCCNc1ccc(NCc2ccc(NCc3ccc(NCCC)nc3)nc2)nc1` [Compound 2c, N^5-Propyl-N^2-((6-((6-(propylamino)pyridin-3-yl)methylamino)pyridin-3-yl)methyl)pyridine-2,5-diamine], the entries for the “percentage of the "number of peaks" value obtained for the control reaction without added compound” value in series [2] (100 nM compound) and in series [2] (200 nM compound) were 29.4% and 51.2%, respectively. Besides, the entries for the “percentage of the "peaks x height" value obtained for the control reaction without added compound” value in series [2] (100 nM compound) and in series [2] (200 nM compound) were 26.6% and 45.1%, respectively.
As for `Cc1ccc(-c2cnc(NCc3cnc(NCc4ccccc4)s3)s2)cc1` (as salt: hydrochloride) [Compound 2h, N-Benzyl-5-((5-p-tolylthiazol-2-ylamino)methyl)thiazol-2-amine dihydrochloride], the melting point was 105 to 106 °C.
On the same count and under the same terms, for `CNc1ncc(CNc2nc(-c3ccc(C)cc3)cs2)s1` (as salt: hydrochloride) [Compound 2n, N-Methyl-5-((4-p-tolylthiazol-2-ylamino)methyl)thiazol-2-amine dihydrochloride] the value was 114 to 116 °C.

Source of the values: patent US8673940B2, “Compounds for the treatment of diseases associated with amyloid or amyloid-like proteins” (AC Immune SA, priority 2006, dated 2014).
